# Test results reported in patent US7902240B2, “Substituted pyrazole and triazole compounds as KSP inhibitors” (Novartis AG, priority 2006, dated 2011).
# Where “and” joins values, the source holds several entries; their conditions need not be identical. Equal values may be shown once.
# Target: T1, motor domain of human KSP (Eg 5, KNSL1) (Homo sapiens, UniProt P52732)
# T1 construct: KSP motor protein (i.e., the KSP motor domain); made in house
# T1 sequence (P52732 18-359 limits assumed): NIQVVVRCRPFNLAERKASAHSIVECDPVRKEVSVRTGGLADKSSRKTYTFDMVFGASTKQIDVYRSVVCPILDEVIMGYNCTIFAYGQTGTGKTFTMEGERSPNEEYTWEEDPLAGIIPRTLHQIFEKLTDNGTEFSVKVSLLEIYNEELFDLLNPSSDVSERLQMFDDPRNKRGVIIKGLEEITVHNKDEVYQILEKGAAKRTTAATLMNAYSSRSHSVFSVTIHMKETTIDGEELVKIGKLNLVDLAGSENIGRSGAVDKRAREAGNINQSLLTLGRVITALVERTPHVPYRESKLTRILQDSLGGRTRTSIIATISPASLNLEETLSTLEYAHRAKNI
# Experiment: Assay for determining KSP activity (microtubule-stimulated ATPase, Biomol Green)
# Format: biochemical
# Conditions: KSP motor domain 45 nM, microtubules 35 μg/mL, ATP, 1 hour RT, absorbance at 630 nm
# Excerpt: This example provides a representative in vitro assay for determining KSP activity in vitro. Purified microtubules obtained from bovine brain were purchased from Cytoskeleton Inc. (Denver, Colo., USA). The motor domain of human KSP (Eg 5, KNSL1) was cloned, expressed, and purified to greater than 95% homogeneity. Biomol Green was purchased from Affinity Research Products Ltd. (Matford Court, Exeter, Devon, United Kingdom). Microtubules and KSP motor protein (i.e., the KSP motor domain) were diluted in assay buffer (20 mM Tris-HCl (pH 7.5), 1 mM MgCl2, 10 mM DTT and 0.25 mg/mL BSA) to a final concentration of 35 μg/mL microtubules and 45 nM KSP. The microtubule/KSP mixture was then pre-incubated at 37° C. for 10 min to promote the binding of KSP to microtubules.
# To each well of the testing plate (384-well plate) containing 1.25 μL of inhibitor or test compound in DMSO (or DMSO only in the case of controls) were added 25 μL of ATP solution (ATP diluted to a concentration of 300 μM in assay buffer) and 25 μL of the above-described microtubule/KSP solution. The plates were incubated at RT for 1 hour. Following incubation, 65 μL of Biomol Green (a malachite green-based dye that detects the release of inorganic phosphate) was added to each well. The plates were incubated for an additional 5-10 minutes then the absorbance at 630 nm was determined using a Victor II plate reader. The amount of absorbance at 630 nm corresponded to the amount of KSP activity in the samples. The IC50 of each inhibitor or test compound was then determined based on the decrease in absorbance at 630 nm at each concentration, via nonlinear regression using either XLFit for Excel or Prism data analysis software by GraphPad Software Inc.
row,SMILES,IC50
1,"C[C@H](O)C(=O)N(CC[C@H](N)C(F)F)[C@@H](c1nc(-c2cc(F)ccc2F)nn1Cc1cccc(C(F)(F)F)c1)C(C)(C)C [Compound 80, (S)-N-((S)-3-amino-4,4-difluorobutyl)-N-((R)-1-(3-(2,5-difluorophenyl)-1-(3-(trifluoromethyl)benzyl)-1H-1,2,4-triazol-5-yl)-2,2-dimethylpropyl)-2-hydroxypropanamide]",> 0.1 µM and ≤ 1 µM
2,"C[C@H](O)C(=O)N(CC[C@@H](N)C(F)F)[C@@H](c1nc(-c2cc(F)ccc2F)nn1Cc1cccc(C(F)(F)F)c1)C(C)(C)C [Compound 78, (S)-N-((R)-3-amino-4,4-difluorobutyl)-N-((R)-1-(3-(2,5-difluorophenyl)-1-(3-(trifluoromethyl)benzyl)-1H-1,2,4-triazol-5-yl)-2,2-dimethylpropyl)-2-hydroxypropanamide]",> 0.1 µM and ≤ 1 µM
3,"Cc1cccc(Cn2nc(-c3cc(F)ccc3F)nc2[C@H](N(CC[C@H](N)C(F)F)C(=O)[C@H](C)O)C(C)(C)C)c1 [Compound 79, (S)-N-((S)-3-amino-4,4-difluorobutyl)-N-((R)-1-(3-(2,5-difluorophenyl)-1-(3-methylbenzyl)-1H-1,2,4-triazol-5-yl)-2,2-dimethylpropyl)-2-hydroxypropanamide]",≤ 0.1 µM
4,"C[C@H](O)C(=O)N(CC[C@H](N)CF)[C@@H](c1nc(-c2cc(Cl)cc(Cl)c2)nn1Cc1ccccc1)C(C)(C)C [Compound 71, (S)-N-((S)-3-amino-4-fluorobutyl)-N-((R)-1-(1-benzyl-3-(3,5-dichlorophenyl)-1H-1,2,4-triazol-5-yl)-2,2-dimethylpropyl)-2-hydroxypropanamide]",> 1 µM
5,"C[C@H](O)C(=O)N(CC[C@@H](N)C(F)F)[C@@H](c1nc(-c2cc(F)ccc2F)nn1Cc1cccc(C#N)c1)C(C)(C)C [Compound 77, (S)-N-((R)-3-amino-4,4-difluorobutyl)-N-((R)-1-(1-(3-cyanobenzyl)-3-(2,5-difluorophenyl)-1H-1,2,4-triazol-5-yl)-2,2-dimethylpropyl)-2-hydroxypropanamide]",> 0.1 µM and ≤ 1 µM
6,"CC(C)c1cccc(Cn2nc(-c3cc(F)ccc3F)nc2[C@H](N(CC[C@H](N)C(F)F)C(=O)[C@H](C)O)C(C)(C)C)c1 [Compound 85, (S)-N-((S)-3-amino-4,4-difluorobutyl)-N-((R)-1-(3-(2,5-difluorophenyl)-1-(3-isopropylbenzyl)-1H-1,2,4-triazol-5-yl)-2,2-dimethylpropyl)-2-hydroxypropanamide]",> 1 µM
7,"CC(C)c1cccc(Cn2nc(-c3cc(F)ccc3F)nc2[C@H](N(CC[C@@H](N)C(F)F)C(=O)[C@H](C)O)C(C)(C)C)c1 [Compound 86, (S)-N-((R)-3-amino-4,4-difluorobutyl)-N-((R)-1-(3-(2,5-difluorophenyl)-1-(3-isopropylbenzyl)-1H-1,2,4-triazol-5-yl)-2,2-dimethylpropyl)-2-hydroxypropanamide]",> 1 µM
